Data taken from publication PMC8308911, “Pharmacokinetic Study of Anti-osteoarthritic Compounds of a Standardized Fraction from Sphaeralcea Angustifolia” (Pharmaceuticals, 2021).
Where two headings read alike, the source gives them in different places.

Assays:
[1] = Pharmacokinetics after single intravenous administration of the SaTSS standardized fraction (plasma, HPLC, PKSolver); assay type: in vivo, ICR mice; details: for AUC(0-t): read-out: AUC0-60 (converted); for Vd: read-out: Vss
Protocol: Analyses of HPLC were carried out in a Waters system (2695 Separation module) coupled to a diode array detector (2996) with a 190–600-nm detection range and operated by the Manager Millennium software system (Empower 1; Waters Corporation, Mexico City, Mexico). Separations were performed in a Spherisorb-ODS RP-18 column (250 × 4.6 mm, 5 µm; Waters Corporation, Mexico) employing a constant temperature of 25 °C during the analyses. Samples (20 µL) were eluted at a 1.0 mL/min flow rate with a gradient of mobile phases of (A) high-purity H2O with trifluoroacetic acid to 0.5% v/v (TFA, Sigma-Aldrich, Mexico City, Mexico) and (B) high purity CH3CN, and compounds were detected by monitoring absorbance for tomentin and scopoletin at λ = 343 nm and for sphaeralcic acid at λ = 357 nm. The mobile phase was started with water (100%) and was maintained for 1 min, then solvent B was gradually incorporated at 5% (at 2 min), at 30% (at 4 min), and at 50% (at 16 min). During the next 4 min, solvent B was increased to 100%, and this proportion was maintained for 5 min. Finally, the following 3 min were utilized to return the mobile phase to the initial condition. […] Identification of scopoletin and tomentin as well as sphaeralcic acid was performed by comparing their retention times (tomentin—11.288 min, scopoletin—11.349 min, coumarin mixure—11.457 min, and sphaeralcic acid—23.319 min) and absorbance spectra.
The mice were previously anesthetized with sodium pentobarbital (PiSA Agropecuaria), then retro-orbital sinus blood was obtained using heparinized capillaries and distributed to heparinized tubes, and tubes were centrifuged at 3500 g for 7 min. The plasma obtained was transferred to new tubes and stored at −4 °C until use.
Plasma samples were extracted with CH3CN and TFA (w/v) 20% (1:1), then vials were centrifuged at 14,000 g for 10 min and the supernatant was transferred to another vial and left to dry at room temperature. The precipitate was resuspended with 1 mL of high-purity methanol (Merk, México) and filtered through Teflon membrane (13 mm, 0.45 µm, Life Science). Each filtered sample was injected into the HPLC equipment, and the concentrations of tomentin and scopoletin at λ = 343 nm and of sphaeralcic acid at λ = 357 nm were obtained by comparison with pre-built calibration curves.
To evaluate the suitability of the assay for the pharmacokinetic studies, 400 mg/kg of the active SaTSS fraction standardized in a mixture of tomentin and scopoletin (7.1 mg/400 mg), and sphaeralcic acid (34.6 mg/400 mg) was administered orally or intravenously to the mice. The dose of SaTSS fraction was chosen based on previous research of active compounds, as the median efective dose of each compound and detectable concentrations of them in the fraction. For oral pharmacokinetics, ten animals were used in each group at different times (0, 1.3, 3.3, 5, 10, 20, 40, 60, 80, 120, and 240 min). For intravenous pharmacokinetics, three animals were used in each group at different times (2, 4, 6, 8, 10, 15, 20, 30, and 60 min) Subsequently, the mice were anesthetized, retro-orbital sinus blood was obtained, plasma samples were extracted with CH3CN and TFA (w/v) 20% (1:1), and the extracts were analyzed by HPLC for coumarin (tomentin and scopoletin) and sphaeralcic acid quantification. Pharmacokinetic calculations were performed using the observed data. All data were subsequently processed using the PKSolver add-in program for Microsoft Excel written in Visual Basic for Applications. All values obtained were expressed in mean ± Standard Deviation (SD). For the pharmacokinetic assay, the selection was made either from a one-compartment or from a two-compartment model, with the use of both the Akaike Information Criterion (AIC) and the Schwarz Criterion (SC). […]

[2] = design: method as in PMID 23384552; dose or concentration left out as unconfirmed; details: feces and urine; ref [20]; cited from earlier work
[3] = Stability of the active compounds in mouse plasma under handling and storage conditions; details: mice plasma
Protocol: The investigation presented here expected manipulation conditions during all of the sample storage and process periods, which included the stability data from the freeze/defrost, bench-top, autosampler, and long-term stability tests. For all stability studies, fresh QC samples were evaluated by using a freshly prepared standard curve for the measurements. The analyzed conditions were 0, 8, and 24 h at room temperature, 8 h at 4 °C, and 30 days at −70 °C. The concentrations obtained from all of the stability studies were compared with the fresh QC samples, and the percentage of concentration deviation was calculated.

[4] = ICR, mouse, plasma, iv, 400 mg/kg, intravenous 400 mg/kg SaTES fraction, One-Compartment Model
[5] = ICR, mouse, plasma, iv, 400 mg/kg, intravenous 400 mg/kg SaTES fraction, Two-Compartment Model
[6] = intravenous 400 mg/kg SaTES fraction, One-Compartment Model
[7] = intravenous 400 mg/kg SaTES fraction, Two-Compartment Model
[8] = intravenous 400 mg/kg SaTES fraction, Two-Compartment Model, 400 mg/kg
[9] = intravenous 400 mg/kg SaTES fraction, Two-Compartment Model, listed as Sphaeralcic Acid, 400 mg/kg
[10] = intravenous 400 mg/kg SaTES fraction, Two-Compartment Model, listed as sphaeralcic acid, 400 mg/kg
[11] = Autosampler (4 °C, 8 h), nominal 2.5 μg/mL
[12] = Autosampler (4 °C, 8 h), nominal 5 μg/mL
[13] = Autosampler (4 °C, 8 h), nominal 10 μg/mL
[14] = Long-term (−70 °C, 1 month), nominal 2.5 μg/mL
[15] = Long-term (−70 °C, 1 month), nominal 5 μg/mL
[16] = Long-term (−70 °C, 1 month), nominal 10 μg/mL
[17] = room temperature, 0 h, nominal 2.5 μg/mL
[18] = room temperature, 0 h, nominal 5 μg/mL
[19] = room temperature, 0 h, nominal 10 μg/mL
[20] = room temperature, 8 h, nominal 2.5 μg/mL
[21] = room temperature, 8 h, nominal 5 μg/mL
[22] = room temperature, 8 h, nominal 10 μg/mL
[23] = room temperature, 24 h, nominal 2.5 μg/mL
[24] = room temperature, 24 h, nominal 5 μg/mL
[25] = room temperature, 24 h, nominal 10 μg/mL

COc1c(C)cc2c(C(C)C)cc(C(=O)O)c(O)c2c1O [Sphaeralcic acid, sphaeralcic acid]
AUC(0-inf) [1, 4]: 21300 ng·h/mL
clearance [1, 4]: 27 mL/min/kg
AUC(0-t) [1, 4]: 18300 ng·h/mL
C0 ([1]; ICR, mouse, plasma, iv, 400 mg/kg, intravenous 400 mg/kg SaTES fraction, One-Compartment Model, read-out: C0): 41.7 µg/mL
MRT ([1]; ICR, mouse, plasma, iv, 400 mg/kg, intravenous 400 mg/kg SaTES fraction, One-Compartment Model, read-out: MRT (converted)): 30.7 min
Vd [1, 4]: 0.828 L/kg
half-life ([1]; ICR, mouse, plasma, iv, 400 mg/kg, intravenous 400 mg/kg SaTES fraction, One-Compartment Model, read-out: t1/2): 21.2 min
AUC(0-inf) [1, 5]: 20400 ng·h/mL
clearance [1, 5]: 28 mL/min/kg
AUC(0-t) [1, 5]: 17700 ng·h/mL
C0 ([1]; ICR, mouse, plasma, iv, 400 mg/kg, intravenous 400 mg/kg SaTES fraction, Two-Compartment Model, read-out: C0): 58.5 µg/mL
MRT ([1]; ICR, mouse, plasma, iv, 400 mg/kg, intravenous 400 mg/kg SaTES fraction, Two-Compartment Model, read-out: MRT (converted)): 29.3 min
Vd [1, 5]: 0.826 L/kg
half-life ([1]; ICR, mouse, plasma, iv, 400 mg/kg, intravenous 400 mg/kg SaTES fraction, Two-Compartment Model, read-out: t1/2β): 20.6 min
concentration at 2 min ([1]; ICR, mouse, plasma, intravenous single dose 400 mg/kg SaTES fraction, 2.0 min, n = 3): 40880 ± 210 ng/mL
concentration at 4 min ([1]; ICR, mouse, plasma, intravenous single dose 400 mg/kg SaTES fraction, 4.0 min, n = 3): 36280 ± 110 ng/mL
concentration at 6 min ([1]; ICR, mouse, plasma, intravenous single dose 400 mg/kg SaTES fraction, 6.0 min, n = 3): 33900 ± 240 ng/mL
concentration at 8 min ([1]; ICR, mouse, plasma, intravenous single dose 400 mg/kg SaTES fraction, 8.0 min, n = 3): 31800 ± 750 ng/mL
concentration at 10 min ([1]; ICR, mouse, plasma, intravenous single dose 400 mg/kg SaTES fraction, 10 min, n = 3): 28700 ± 650 ng/mL
concentration at 15 min ([1]; ICR, mouse, plasma, intravenous single dose 400 mg/kg SaTES fraction, 15 min, n = 3): 24400 ± 330 ng/mL
concentration at 20 min ([1]; ICR, mouse, plasma, intravenous single dose 400 mg/kg SaTES fraction, 20 min, n = 3): 21200 ± 510 ng/mL
concentration at 30 min ([1]; ICR, mouse, plasma, intravenous single dose 400 mg/kg SaTES fraction, 30 min, n = 3): 15800 ± 570 ng/mL
concentration at 60 min ([1]; ICR, mouse, plasma, intravenous single dose 400 mg/kg SaTES fraction, 60 min, n = 3): 3810 ± 90 ng/mL
AUMC [1, 6]: 39,202.118 µg/mL*min^2
V [1, 6]: 0.828 (mg)/(µg/mL)
k10 [1, 6]: 0.032 min⁻¹
AUC0-inf ∞ ([1]; intravenous 400 mg/kg SaTES fraction, One-Compartment Model, 400 mg/kg): 1278.978 µg·min/mL
k10 [1, 7]: 0.048 min⁻¹
k12 [1, 7]: 0.249 min⁻¹
k21 [1, 7]: 0.624 min⁻¹
t1/2α [1, 7]: 0.781 min
α [1, 7]: 0.88 min⁻¹
β [1, 7]: 0.034 min⁻¹
A (plasma concentration, central compartment) [1, 8]: 18.03 µg/mL
B (plasma concentration, peripheral compartment) [1, 8]: 40.46 µg/mL
A (plasma concentration, central compartment) [1, 9]: 18.027 µg/mL
AUMC [1, 9]: 35,880.304 µg/mL*min^2
B (plasma concentration, peripheral compartment) [1, 9]: 40.461 µg/mL
C0 [1, 9]: 58.489 µg/mL
MRT [1, 9]: 29.294 min
V [1, 9]: 0.591 (mg)/(µg/mL)
AUMC [1, 10]: 35,880.30 µg/mL*min^2
V [1, 10]: 0.59 (mg)/(µg/mL)
route of elimination [2]: enterohepatic route
Accuracy Bias [3, 11]: −3.89%
Observed Concentration [3, 11]: 2.40 ± 0.04 µg/mL
Accuracy Bias [3, 12]: −1.69%
Observed Concentration [3, 12]: 4.92 ± 0.08 µg/mL
Accuracy Bias [3, 13]: −3.34%
Observed Concentration [3, 13]: 9.67 ± 0.12 µg/mL
Accuracy Bias [3, 14]: −4.82%
Observed Concentration [3, 14]: 2.38 ± 0.08 µg/mL
Accuracy Bias [3, 15]: −2.61%
Observed Concentration [3, 15]: 4.87 ± 0.10 µg/mL
Accuracy Bias [3, 16]: −3.50%
Observed Concentration [3, 16]: 9.65 ± 0.08 µg/mL
Accuracy Bias [3, 17]: −0.60%
Observed Concentration [3, 17]: 2.48 ± 0.03 µg/mL
Accuracy Bias [3, 18]: 0.17%
Observed Concentration [3, 18]: 5.01 ± 0.06 µg/mL
Accuracy Bias [3, 19]: −0.49%
Observed Concentration [3, 19]: 9.95 ± 0.11 µg/mL
Accuracy Bias [3, 20]: −9.98%
Observed Concentration [3, 20]: 2.25 ± 0.13 µg/mL
Accuracy Bias [3, 21]: −8.10%
Observed Concentration [3, 21]: 4.59 ± 0.06 µg/mL
Accuracy Bias [3, 22]: −6.48%
Observed Concentration [3, 22]: 9.35 ± 0.11 µg/mL
Accuracy Bias [3, 23]: −9.03%
Observed Concentration [3, 23]: 2.27 ± 0.11 µg/mL
Accuracy Bias [3, 24]: −8.73%
Observed Concentration [3, 24]: 4.56 ± 0.10 µg/mL
Accuracy Bias [3, 25]: −7.37%
Observed Concentration [3, 25]: 9.26 ± 0.07 µg/mL
